Results: patent publication US6664231B1, “Anti-fungal peptides” (priority 1993, dated 2003)
Where “and” joins values, the source holds several entries; their conditions need not be identical. Identical values can stand only once.

Assays:
Candida parapsilosis = test: Radial diffusion assay, Candida species (Table 2); format: cell-based
Procedure: (§1) The anti-fungal activity of Domain III derived peptides was also evaluated in vitro against a variety of fungal species, including Candida glabrata, Candida krusei, Candida lusitaniae, Candida parapsilosis, and Candida tropicalis. For these experiments, one colony of each of the above-listed Candida strains was picked from a Sabouraud's dextrose agar (SDA) plate and inoculated into 5 mL of Sabouraud's dextrose broth (SDB, 2% dextrose and 1% neopeptone) or, for C. krusei, Yeast Malt broth (YM, Becton Dickenson, Cockeysville, Md., cat no. BL 11405) in 12 mL polyproplyene snap-cap tubes. The tube cultures were incubated overnight with shaking at 37° C.
(§2) Cultures were harvested when the OD570 of a 1:10 dilution was greater than or equal to the following values: 0.083 for Candida glabrata, 0.154 for Candida krusei, 0.117 for Candida lusitaniae, 0.076 for Candida parapsilosis, and 0.192 for Candida tropicalis. Cells were centrifuged for 7 minutes in an Eppendorf microfuge at 3,000 rpm (about 1,500 g). The cell pellet was resuspended in 1 mL PBS and approximately 1×10^7 cells in about 0.5 mL were added to 10 mL of cooled underlay agar (3% SBD, 1% agarose, 0.02% Tween 20, 10 mM sodium phosphate buffer, pH 7.4 at about 45° C.). The suspension was poured into square petri plates, allowed to solidify, and wells cut as described above.
(§3) Peptides were two-fold serially diluted with D-PBS from about 20 μL of a starting concentration of approximately 1 mg/mL. Five μL of peptide dilution were added per well and allowed to diffuse for at least about 30 minutes into the agar at […] (to allow complete diffusion). Then 10 mL of molten overlayer agarose (6% SDB, 1% agarose, 10 mM sodium phosphate buffer, pH 7.4 at about 45° C.) were added and the plates were incubated inverted at […] overnight. Plates were stained with a dilute Coomassie solution, inhibition zones were measured with calipers and net areas were calculated, then converted to pmole values by PROBIT analysis.

Candida glabrata = test: Radial diffusion assay, Candida species (Table 2); format: cell-based
Procedure: as §1, §2, §3

Candida tropicalis = test: Radial diffusion assay, Candida species (Table 2); format: cell-based
Procedure: as §1, §2, §3

Candida lusitaniae = test: Radial diffusion assay, Candida species (Table 2); format: cell-based
Procedure: as §1, §2, §3

Candida krusei = test: Radial diffusion assay, Candida species (Table 2); format: cell-based
Procedure: as §1, §2, §3

[1] = system: Candida albicans SLU-1 strain; test: Serum stability, anti-fungal activity after serum incubation by radial diffusion bioassay; format: in vitro ADME, rat or human serum
Procedure, shortened: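 Peptide at 1 mg/mL mixed with an equal volume of rat or human serum and held at 37° C. Samples taken at 0, 1, 2 and 4 h, extracted on C-18 solid phase, then analysed by HPLC, N-terminal sequencing and ESI/MS. Recovered peptides tested against C. albicans SLU-1 by radial diffusion.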

[2] = system: C. albicans (CA-1, Strain SLU-1); test: Radial diffusion assay; format: cell-based, Candida albicans; details: pmoles of peptide added to well to achieve a 30 mm^2 zone, PROBIT analysis, crude or purified (P′) peptide
Procedure, shortened: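 Yeast at 1×10^6 CFU/mL in agarose underlayer (3% Sabouraud, 10 mM sodium phosphate pH 7.4); 2-fold peptide dilutions in D-PBS from ~1 mg/mL loaded into wells, 3 h at 37° C, then nutrient overlayer overnight. Value: pmol/well giving 30 mm^2 net clear zone, by PROBIT regression.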

Candida albicans = test: Radial diffusion assay, Candida species (Table 2); format: cell-based; details: higher effective concentration of agarose than Table 1
[3] = system: polyene-resistant (ATCC 38247), 5-fluorocytosine-resistant (ATCC 44373), azole-resistant (ATCC 62342), ketoconazole-resistant (ATCC 64124) C. albicans; test: Fungicidal activity on commercially-available drug-resistant Candida strains; format: cell-based, Candida albicans; details: ATCC 38247, 44373, 62342, 64124
Procedure: Further experiments were performed to determine the anti-fungal activity of Domain III derived peptides on commercially-available strains of Candida considered resistant to other anti-fungal agents: polyene-resistant C. albicans (ATCC Accession No. 38247), 5-fluorocytosine-resistant C. albicans (ATCC No. 44373), azole-resistant C. albicans (ATCC No. 62342), and ketoconazole-resistant C. albicans (ATCC No. 64124).

[4] = system: C. albicans (SLU-1 strain); test: Survival of mice systemically infected with Candida albicans; format: in vivo, mouse; details: 1.24×10^5 C. albicans i.v.; 3 doses i.v. (Day 0, 2, 4); 10 mg/kg XMP.36, 5 mg/kg XMP.97, 10 mg/kg XMP.102, 1 mg/kg amphotericin B; FIG. 4
Procedure: Groups of 15 male DBA/2J mice at age 6-8 weeks (Jackson Laboratory, Bar Harbor, Me.) were inoculated with 1.24×10^5 C. albicans (SLU-1 strain as described in Example 2) by intravenous injection into the tail vein. Cells were prepared for animal injection as follows. A single colony was selected and used to inoculate a 5 mL tube of Sabouraud dextrose broth. Incubation was at 30° C. with shaking to allow aeration for a period of 15-18 hours. Four mL of the overnight culture were added to 100 mL of fresh Sabouraud dextrose broth (1:25 dilution) and incubated for 4 hours. The 100 mL culture was pelleted at 1,500×g for 5 minutes. Cells were washed twice by adding 20 mL D-PBS, vortexing and re-centrifuging. Cells were collected in one tube and a sample is diluted 1:10 to be measured by OD570 (1 OD unit=3×10^7 CFU/mL). The cells were diluted to the desired dose in D-PBS and kept at 4° C. until used. Doses were confirmed by performing serial ten-fold dilutions and plating 50 μl per dilution on Sabouraud dextrose agar. Colonies were counted the following day after overnight incubation at 37° C. A […] culture yielded approximately 1×10^9 CFU/mL.
Immediately after fungal challenge, the mice were intravenously injected via the tail vein with a 0.1 mL volume of 10 mg/kg XMP.36, 5 mg/kg XMP.97, 10 mg/kg XMP.102, 1 mg/kg amphotericin B (Sigma, St. Louis, Mo.), or phosphate buffered saline (PBS) as a control. Treatment with the same amounts of peptides, amphotericin B or PBS was repeated at Day 2 and Day 4 (except that the second dose of XMP.36 was given at a dose of 5 mg/kg). Mice were monitored twice daily for mortality until termination of the study at Day 28. […] In FIG. 4, the symbol “X” represents survival after treatment with amphotericin B; open squares, treatment with XMP.97; open circles, treatment with XMP.36; open diamonds, treatment with XMP.102; and open triangles, treatment with buffer. Statistical significance was evaluated using the Lifetest Survival Curve analysis. [Lawless, Statistical Models and Methods for Lifetime Data, John Wiley & Sons, New York (1982).] The duration and almost linear decline in survival is analogous to human opportunistic candidiasis.
In additional 3-dose studies, groups of 15 mice were injected with a fungal challenge of 0.5×10^5 Candida cells, prepared for injection as described above, followed by treatment at Day 0, Day 2 and Day 5 with a 0.1 mL volume of 10 mg/kg XMP.127, 5 mg/kg XMP.13, 5 mg/kg XMP.37, 1 mg/kg amphotericin B, or PBS as a control. […] In FIG. 5, the symbol “X” represents survival after treatment with amphotericin B; open circles, treatment with XMP.127; filled triangles, treatment with buffer; open squares, treatment with XMP.37; open triangles, treatment with XMP.13.
Further studies to determine the effectiveness of anti-fungal peptides were performed at an increased dosing regimen (6 doses rather than 3 doses as described above). Groups of 9 week-old male DBA/2J mice were inoculated with concentrations of 2.7×10^5 Candida cells (prepared as described above) by intravenous injection in the tail vein. Immediately after fungal challenge, the mice were treated with a 0.1 mL volume of 10 mg/kg XMP.284, 1 mg/kg amphotericin B or PBS as a control at Day 0, Day 2, Day 4, Day 7, Day 9 and Day 11. All amphotericin B-treated animals were protected.
Additional 6-dose experiments were conducted as described above, using inocula of 0.5-3.0×10^5 Candida cells and using 0.01, 0.05, 0.1, 0.5, 1.0 or 5.0 mg/kg doses of peptide.

Row | Substance | Anti-fungal activity: pmol/30 mm^2 zone, Candida parapsilosis (Candida parapsilosis) | Anti-fungal activity: pmol/30 mm^2 zone, Candida glabrata (Candida glabrata) | Anti-fungal activity: pmol/30 mm^2 zone, Candida tropicalis (Candida tropicalis) | Anti-fungal activity: pmol/30 mm^2 zone, Candida lusitaniae (Candida lusitaniae) | Anti-fungal activity: pmol/30 mm^2 zone, Candida krusei (Candida krusei) | Activity in Serum t ½ (hr.) [1] | C. albicans pmol/30 mm^2 zone [2] | C. albicans pmol/30 mm^2 zone ([2]; listed as XMP.337P′) | Anti-fungal activity: pmol/30 mm^2 zone, Candida albicans (Candida albicans) | Fungicidal activity on resistant strains [3] | mice survived until Day 28 [4]
1 | H-HHWLIQLHH-NH2 [XMP.337] | b (No detectable activity up to 5 μg/well) | b (No detectable activity up to 5 μg/well) | b (No detectable activity up to 5 μg/well) | 6,928 pmol/30 mm^2 zone | 5,339 pmol/30 mm^2 zone | inactive | b (No detectable activity up to 5 μg/well) | >3,350 pmol/30 mm^2 zone | b (No detectable activity up to 5 μg/well) | – | –
2 | H-KSKVGALIQLFHKK-NH2 [XMP.36] | – | – | – | – | – | – | 197 pmol/30 mm^2 zone and 231 pmol/30 mm^2 zone | – | – | not reduced | 33%
3 | H-KSKVGVLIQLFHKK-NH2 [XMP.166] | 1,199 pmol/30 mm^2 zone | 2,100 pmol/30 mm^2 zone | 864 pmol/30 mm^2 zone | 1,133 pmol/30 mm^2 zone | 3,240 pmol/30 mm^2 zone | – | 171 pmol/30 mm^2 zone | – | >3,079 pmol/30 mm^2 zone | not reduced | –
